Earlier results in US20110136769A1, “METHOD OF TREATING MEN WITH TE[…] 5ALPHA-REDUCTASE INHIBITOR” (Merck Sharp & Dohme Corp., priority 2007, published 2011).

Tests used:
5α-reductase type 2 = target: T1, 5α-reductase type 2 (Homo sapiens, UniProt P31213); conditions: background statement
T1 construct: Samples of human tissue were pulverized using a freezer mill and homogenized; from tissue; host or cells: human prostate (crude nuclear pellet of homogenate)
T1 sequence (P31213 1-254): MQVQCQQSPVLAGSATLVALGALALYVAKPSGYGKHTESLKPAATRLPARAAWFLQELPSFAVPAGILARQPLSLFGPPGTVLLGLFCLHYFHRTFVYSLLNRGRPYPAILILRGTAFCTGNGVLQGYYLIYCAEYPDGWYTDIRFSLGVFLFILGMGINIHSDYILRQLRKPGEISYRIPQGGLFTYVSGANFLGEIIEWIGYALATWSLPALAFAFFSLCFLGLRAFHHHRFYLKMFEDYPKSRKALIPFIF

5α-reductase type 1 = target: T2, 5α-reductase type 1 (Homo sapiens, UniProt P18405); conditions: background statement
T2 construct: Samples of human tissue were pulverized using a freezer mill and homogenized; from tissue; host or cells: human scalp (crude nuclear pellet of homogenate)
T2 sequence (P18405 1-259): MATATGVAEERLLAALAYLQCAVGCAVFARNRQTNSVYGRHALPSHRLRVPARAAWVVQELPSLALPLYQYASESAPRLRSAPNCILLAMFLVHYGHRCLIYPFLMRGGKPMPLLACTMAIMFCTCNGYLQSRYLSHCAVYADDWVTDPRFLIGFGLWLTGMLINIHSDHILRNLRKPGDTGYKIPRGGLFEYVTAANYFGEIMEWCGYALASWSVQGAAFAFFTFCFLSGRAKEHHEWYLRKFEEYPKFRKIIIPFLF

| Structure (SMILES) | inhibition of the human type 2 enzyme (5α-reductase type 2) | inhibition of 5α-reductase type 1 (5α-reductase type 1) |
| --- | --- | --- |
| CC(C)(C)NC(=O)[C@H]1CCC2C3CCC4NC(=O)C=C[C@]4(C)C3CC[C@@]21C (stereo partly drawn) [Finasteride, 17β-(N-tert-butylcarbamoyl)-3-oxo-4-aza-5α-androst-1-en-3-one] | potent inhibitor |  |
| C[C@]12C=CC(=O)N[C@@H]1CC[C@@H]1[C@@H]2CC[C@]2(C)[C@@H](C(=O)Nc3cc(C(F)(F)F)ccc3C(F)(F)F)CC[C@@H]12 [dutasteride] | potent inhibitors | potent inhibitors |
